Key:
[1] = test system: THP-1 Lucia ISG cells (IRF-inducible Lucia luciferase reporter); assay: Interferon-β induction: THP-1 ISG reporter cell line; assay type: cell-based; settings: THP1-Lucia ISG, 24 hours incubation, read-out: THP-1 Lucia ISG Cells IFN-β EC50
Description: Interferon-β Induction: THP-1 ISG Reporter Cell Line
THP-1 Lucia™ ISG cells (InvivoGen) express the secreted luciferase “Lucia” reporter gene under the control of an IRF-inducible composite promotor comprised of five interferon response elements. THP-1 Lucia™ ISG cells were grown in RPMI media plus 2 mM L-glutamine, 10% fetal bovine serum, and 0.5% Pen-Strep. Hygromycin B and Zeocin were present to maintain stable transfection. 10^4 cells were seeded in 96-well plates and incubated overnight 37° C., 5% CO2. 50 μL of serial diluted compounds in media (final 0.5% DMSO) was and incubated for an additional 24 hours. After incubation, the plates were centrifuged at 2000 rpm for 10 min. 50 μl of cell culture supernatant of each well was transferred to a white, opaque 96-well plate. One pouch of QUANTI-Luc™ (InvivoGen) powder was prepared in 25 mL of endotoxin-free water and 100 μL of prepared warm QUANTI-Luc solution were added to each well containing the supernatant. The luminescence signal was measured using a Perkin-Elmer Envision microplate reader. Data were normalized to “% effect” with a positive control STING agonist that was known to maximize the luciferase signal and the negative control DMSO.

R232-STING = R232-STING (Homo sapiens (Human), UniProt Q86WV6, H232R); settings: read-out: R232-STING SPA-IC50 Ki; STING residues 155-341, 100 nM 3H-cGAMP; KI from IC50 with Cheng-Prusoff equation
[2] = test system: phosphorylation of IRF3 in THP-1 cells (STING activation); assay: Phosphorylation of IRF3: THP-1 cell ELISA; assay type: cell-based; settings: Homo sapiens, 3 hours incubation, read-out: THP-1 CELL P-IRF3 EC50
Description: Phosphorylation of IRF3: THP-1 cell ELISA
STING activation results in recruitment of TBK1 and phosphorylation of IRF3 transcription factor before induction of type I interferons. THP-1 cells (InvivoGen) were grown in RPMI media plus 2 mM L-glutamine, 10% fetal bovine serum, and 0.5% Pen-Strep. 10^4 cells were seeded in 96-well plates and incubated overnight […]. Compounds serial diluted compounds in media (final 0.5% DMSO) were added to the cells and incubated for an additional 3 hours. After incubation, the plates were centrifuged at 2000 rpm for 5 min. The cells were then lysed in 100 μl RIPA buffer and vortexed for 30 minutes at room temperature. 25 μl of lysate was then transferred to clear polystyrene High Bind plates that had been previously coated with mouse anti-human IRF-3 capture antibody (BD Pharmigen), and allowed to incubate at 4° C. for 16 hours. The plates were then washed and incubated with rabbit anti-phospho-IRF3 detection antibody (Cell Signaling Technologies) for 1.5 hours at room temperature. Finally, an HRP-linked secondary antibody (Cell Signaling Technologies) was added for 30 min before the Glo Substrate Reagent (R&D Systems) was used generate the luminescent signal. The signal was measured using a Perkin-Elmer Envision microplate reader. Data were normalized to “% effect” with a positive control STING agonist that was known to maximize the phosphorylated IRF3 signal and the negative control was DMSO.

R232-STING, sequence (Q86WV6 155-341 H232R): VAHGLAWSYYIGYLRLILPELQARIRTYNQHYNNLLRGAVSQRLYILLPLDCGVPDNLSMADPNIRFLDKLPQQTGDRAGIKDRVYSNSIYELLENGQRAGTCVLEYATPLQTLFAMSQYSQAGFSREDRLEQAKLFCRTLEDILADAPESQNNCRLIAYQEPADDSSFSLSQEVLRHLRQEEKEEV

| EC50 [1] [µM] | Ki (R232-STING) [µM] | EC50 [2] [µM] | Compound |
| --- | --- | --- | --- |
| 8.96 | 0.135 | > 10 | Cc1cc(-c2cn(C)c(-c3nc(C(N)=O)cc4c3cnn4C)n2)n(C[C@@H]2CCO2)n1 (single isomer, unassigned) [AIM02] |
| > 10 | 0.175 | > 10 | Cc1cc(-c2cn(C)c(-c3nc(C(N)=O)cc4c3cnn4C)n2)n(C[C@H]2CCO2)n1 (single isomer, unassigned) [Example AIM01] |
| 0.77 | 0.018 | 0.8 | CCn1cc(-c2cc(C)nn2CC)nc1-c1nc(C(N)=O)cc2c1cnn2C [AIA02, 4-[1-ethyl-4-(1-ethyl-3-methyl-1H-pyrazol-5-yl)-1H-imidazol-2-yl]-1-methyl-1H-pyrazolo[4,3-c]pyridine-6-carboxamide] |
| 4.53 | 0.0714 | 4.89 | CCn1nc(C)cc1-c1cn(C(C)C)c(-c2nc(C(N)=O)cc3c2cnn3C)n1 [AIA03, 4-[4-(1-ethyl-3-methyl-1H-pyrazol-5-yl)-1-(propan-2-yl)-1H-imidazol-2-yl]-1-methyl-1H-pyrazolo[4,3-c]pyridine-6-carboxamide] |
| 1.31 | 0.0338 | 1.26 | CCn1nc(C)cc1-c1cn(CC(F)F)c(-c2nc(C(N)=O)cc3c2cnn3C)n1 [AIA04, 4-[1-(2,2-difluoroethyl)-4-(1-ethyl-3-methyl-1H-pyrazol-5-yl)-1H-imidazol-2-yl]-1-methyl-1H-pyrazolo[4,3-c]pyridine-6-carboxamide] |
| > 10 | 0.113 | > 10 | CCn1nc(C)cc1-c1cn(C)c(-c2nc(C(N)=O)cc3c2ccn3C)n1 [AIC02, 4-[4-(1-ethyl-3-methyl-1H-pyrazol-5-yl)-1-methyl-1H-imidazol-2-yl]-1-methyl-1H-pyrrolo[3,2-c]pyridine-6-carboxamide] |
| 0.7 | 0.0078 | 0.65 | CCn1ncc2c(-c3nc(-c4cc(C)nn4CCCOC)cn3C)nc(C(N)=O)cc21 [AIC03, 1-ethyl-4-{4-[1-(3-methoxypropyl)-3-methyl-1H-pyrazol-5-yl]-1-methyl-1H-imidazol-2-yl}-1H-pyrazolo[4,3-c]pyridine-6-carboxamide] |
| 0.27 | 0.0127 | 0.2 | CCn1cc(-c2cc(C)nn2CCCO)nc1-c1nc(C(N)=O)cc2c1cnn2C [AIE02, 4-{1-ethyl-4-[1-(3-hydroxypropyl)-3-methyl-1H-pyrazol-5-yl]-1H-imidazol-2-yl}-1-methyl-1H-pyrazolo[4,3-c]pyridine-6-carboxamide] |
| 0.31 | 0.0107 | 0.31 | Cc1cc(-c2cn(C)c(-c3nc(C(N)=O)cc4c3cnn4C)n2)n(CCCCCO)n1 [AIE03, 4-{4-[1-(5-hydroxypentyl)-3-methyl-1H-pyrazol-5-yl]-1-methyl-1H-imidazol-2-yl}-1-methyl-1H-pyrazolo[4,3-c]pyridine-6-carboxamide] |
| 0.74 | 0.0137 | 0.69 | Cc1cc(-c2cn(C)c(-c3nc(C(N)=O)cc4c3cnn4C)n2)n(CCCCO)n1 [AIE04, 4-{4-[1-(4-hydroxybutyl)-3-methyl-1H-pyrazol-5-yl]-1-methyl-1H-imidazol-2-yl}-1-methyl-1H-pyrazolo[4,3-c]pyridine-6-carboxamide] |
| 2.16 | 0.0546 | 2.09 | COCCn1nc(C)cc1-c1cn(C)c(-c2nc(C(N)=O)cc3c2cnn3C)n1 [AIF02, 4-{4-[1-(2-methoxyethyl)-3-methyl-1H-pyrazol-5-yl]-1-methyl-1H-imidazol-2-yl}-1-methyl-1H-pyrazolo[4,3-c]pyridine-6-carboxamide] |
| 0.16 | 0.0057 | 0.14 | COCCCn1nc(C)cc1-c1cn(C)c(-c2nc(C(N)=O)cc3c2cnn3C)n1 [AIF03, 4-{4-[1-(3-methoxypropyl)-3-methyl-1H-pyrazol-5-yl]-1-methyl-1H-imidazol-2-yl}-1-methyl-1H-pyrazolo[4,3-c]pyridine-6-carboxamide] |
| 2.38 | 0.0236 | 2.12 | Cc1cc(-c2cn(C)c(-c3nc(C(N)=O)cc4c3cnn4C)n2)n(CC2CC2)n1 [AIF04, 4-{4-[1-(cyclopropylmethyl)-3-methyl-1H-pyrazol-5-yl]-1-methyl-1H-imidazol-2-yl}-1-methyl-1H-pyrazolo[4,3-c]pyridine-6-carboxamide] |
| – | > 0.99 | – | Cc1cc(-c2cn(C)c(-c3nc(C(N)=O)cc4c3cnn4C)n2)n(CCC(F)(F)F)n1 [AIF05, 1-methyl-4-{1-methyl-4-[3-methyl-1-(3,3,3-trifluoropropyl)-1H-pyrazol-5-yl]-1H-imidazol-2-yl}-1H-pyrazolo[4,3-c]pyridine-6-carboxamide] |
| 2.57 | 0.0182 | 2.61 | Cc1cc(-c2cn(C)c(-c3nc(C(N)=O)cc4c3cnn4C)n2)n(CC(F)(F)F)n1 [AIF06, 1-methyl-4-{1-methyl-4-[3-methyl-1-(2,2,2-trifluoroethyl)-1H-pyrazol-5-yl]-1H-imidazol-2-yl}-1H-pyrazolo[4,3-c]pyridine-6-carboxamide] |
| 0.2 | 0.002 | 0.31 | CCn1nc(C)c(O)c1-c1cn(C)c(-c2nc(C(N)=O)cc3c2cnn3C)n1 [AIF07, 4-[4-(1-ethyl-4-hydroxy-3-methyl-1H-pyrazol-5-yl)-1-methyl-1H-imidazol-2-yl]-1-methyl-1H-pyrazolo[4,3-c]pyridine-6-carboxamide] |
| – | > 0.99 | – | CCn1nc(C)c(Cl)c1-c1cn(C)c(-c2nc(C(N)=O)cc3c2cnn3C)n1 [AIF08, 4-[4-(4-chloro-1-ethyl-3-methyl-1H-pyrazol-5-yl)-1-methyl-1H-imidazol-2-yl]-1-methyl-1H-pyrazolo[4,3-c]pyridine-6-carboxamide] |
| – | > 0.99 | – | CCn1nc(C(F)(F)F)cc1-c1cn(C)c(-c2nc(C(N)=O)cc3c2cnn3C)n1 [AIF09, 4-{4-[1-ethyl-3-(trifluoromethyl)-1H-pyrazol-5-yl]-1-methyl-1H-imidazol-2-yl}-1-methyl-1H-pyrazolo[4,3-c]pyridine-6-carboxamide] |
| 0.03 | 0.0013 | 0.07 | COCCCn1nc(C)c(O)c1-c1cn(C)c(-c2nc(C(N)=O)cc3c2cnn3C)n1 [AIF10, 4-{4-[4-hydroxy-1-(3-methoxypropyl)-3-methyl-1H-pyrazol-5-yl]-1-methyl-1H-imidazol-2-yl}-1-methyl-1H-pyrazolo[4,3-c]pyridine-6-carboxamide] |
| < 0.01 | 0.0003 | 0.01 | CCCn1nc(C)c(O)c1-c1cn(C)c(-c2nc(C(N)=O)cc3c2cnn3C)n1 [AIF11, 4-[4-(4-hydroxy-3-methyl-1-propyl-1H-pyrazol-5-yl)-1-methyl-1H-imidazol-2-yl]-1-methyl-1H-pyrazolo[4,3-c]pyridine-6-carboxamide] |
| 0.37 | 0.0024 | 0.31 | CCn1nc(C)c(F)c1-c1cn(C)c(-c2nc(C(N)=O)cc3c2cnn3C)n1 [AIF12, 4-[4-(1-ethyl-4-fluoro-3-methyl-1H-pyrazol-5-yl)-1-methyl-1H-imidazol-2-yl]-1-methyl-1H-pyrazolo[4,3-c]pyridine-6-carboxamide] |
| – | 0.352 | – | CCc1nn(C)cc1-c1cn(C)c(-c2nc(C(N)=O)cc3c2cnn3C)n1 [AIH01, 4-[4-(3-ethyl-1-methyl-1H-pyrazol-4-yl)-1-methyl-1H-imidazol-2-yl]-1-methyl-1H-pyrazolo[4,3-c]pyridine-6-carboxamide] |
| – | > 0.99 | – | CCn1nc(C)cc1-c1cn(Cc2ccccc2)c(-c2nc(C(N)=O)cc3c2cnn3C)n1 [AIP03] |
| – | 0.257 | – | CCn1nc(C)cc1-c1cn(C2CC2)c(-c2nc(C(N)=O)cc3c2cnn3C)n1 [Example AIB01, 4-[1-cyclopropyl-4-(1-ethyl-3-methyl-1H-pyrazol-5-yl)-1H-imidazol-2-yl]-1-methyl-1H-pyrazolo[4,3-c]pyridine-6-carboxamide] |
